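Briefly, cells in 96-well plates were exposed to five compound concentrations for 48 h, and endpoints were estimated by linear interpolation. At the GI50, growth is halved.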 Activity calls are given as the source filed them. Cut-off read from the data, not from the text of the source: active = GI50 up to about 1.1 µM and inactive = higher.
Assays:
Test in all cases: DTP human tumour cell line panel, 48 h
[1] = system: MDA-MB-231
[2] = system: HCC 2998
[3] = system: K562
[4] = system: MDA-N
[5] = system: 786-0
[6] = system: HT-29
[7] = system: SW-620
[8] = system: MOLT-4
[9] = system: T47D
[10] = system: MDA-MB-435
[11] = system: HOP-62
[12] = system: IGROV-1
[13] = system: UO-31
[14] = system: A549
[15] = system: DU-145
[16] = system: CCRF-CEM
[17] = system: OVCAR-4
[18] = system: SF-268
[19] = system: SK-MEL-5
[20] = system: NCI-H522
[21] = system: NCI/ADR-RES
[22] = system: HOP-92
[23] = system: SNB-75
[24] = system: NCI-H226
[25] = system: U-251
[26] = system: HCT-15
[27] = system: HL-60
[28] = system: ACHN
[29] = system: SN12C
[30] = system: KM12
[31] = system: UACC-62
[32] = system: RPMI-8226
[33] = system: CAKI-1
[34] = system: COLO 205
[35] = system: A498
[36] = system: NCI-H460
[37] = system: SF-295
[38] = system: OVCAR-5
[39] = system: OVCAR-3
[40] = system: NCI-H23
[41] = system: SK-OV-3
[42] = system: SF-539
[43] = system: EKVX
[44] = system: SR
[45] = system: TK-10
[46] = system: RXF 393
[47] = system: OVCAR-8
[48] = system: UACC-257
[49] = system: M14
[50] = system: HCT-116
[51] = system: Hs-578T

Compound: O=C(/C=C\c1ccccc1-c1ccccc1)c1ccccc1
- GI50 [1]: 12.2 µM (inactive)
- GI50 [2]: > 100 µM (inactive)
- GI50 [3]: > 100 µM (inactive)
- GI50 [4]: > 100 µM (inactive)
- GI50 [5]: > 100 µM (inactive)
- GI50 [6]: > 100 µM (inactive)
- GI50 [7]: > 100 µM (inactive)
- GI50 [8]: 92 µM (inactive)
- GI50 [9]: 15.8 µM (inactive)
- GI50 [10]: > 100 µM (inactive)
- GI50 [11]: > 100 µM (inactive)
- GI50 [12]: > 100 µM (inactive)
- GI50 [13]: > 100 µM (inactive)
- GI50 [14]: 3.93 µM (inactive)
- GI50 [15]: > 100 µM (inactive)
- GI50 [16]: > 100 µM (inactive)
- GI50 [17]: 11.1 µM (inactive)
- GI50 [18]: > 100 µM (inactive)
- GI50 [19]: > 100 µM (inactive)
- GI50 [20]: 17.9 µM (inactive)
- GI50 [21]: > 100 µM (inactive)
- GI50 [22]: > 100 µM (inactive)
- GI50 [23]: 61.8 µM (inactive)
- GI50 [24]: > 100 µM (inactive)
- GI50 [25]: > 100 µM (inactive)
- GI50 [26]: > 100 µM
- GI50 [27]: 60.4 µM (inactive)
- GI50 [28]: > 100 µM (inactive)
- GI50 [29]: > 100 µM (inactive)
- GI50 [30]: 29.4 µM (inactive)
- GI50 [31]: > 100 µM (inactive)
- GI50 [32]: 30.8 µM (inactive)
- GI50 [33]: > 100 µM (inactive)
- GI50 [34]: > 100 µM (inactive)
- GI50 [35]: > 100 µM (inactive)
- GI50 [36]: > 100 µM (inactive)
- GI50 [37]: > 100 µM (inactive)
- GI50 [38]: > 100 µM (inactive)
- GI50 [39]: > 100 µM (inactive)
- GI50 [40]: 33.3 µM (inactive)
- GI50 [41]: > 100 µM (inactive)
- GI50 [42]: > 100 µM (inactive)
- GI50 [43]: > 100 µM (inactive)
- GI50 [44]: > 100 µM (inactive)
- GI50 [45]: > 100 µM (inactive)
- GI50 [46]: 45.5 µM (inactive)
- GI50 [47]: > 100 µM (inactive)
- GI50 [48]: > 100 µM (inactive)
- GI50 [49]: > 100 µM (inactive)
- GI50 [50]: 66.5 µM (inactive)
- GI50 [51]: > 100 µM (inactive)

Source: ChEMBL document CHEMBL1201862, “PubChem BioAssay data set” (2004)
